Source: US11191736B2, “Pharmaceutical formulations containing cannabidiol and nicotine for treating smokeless tobacco addiction” (CV Sciences, Inc., priority 2016, dated 2021)

Legend:
[1] = biological target: T1, MAO-A enzyme (Homo sapiens, UniProt P21397); test: MAO-Glo luminescent assay, MAO-A inhibition; assay type: biochemical; conditions: FIG. 1
T1 sequence (P21397 1-527): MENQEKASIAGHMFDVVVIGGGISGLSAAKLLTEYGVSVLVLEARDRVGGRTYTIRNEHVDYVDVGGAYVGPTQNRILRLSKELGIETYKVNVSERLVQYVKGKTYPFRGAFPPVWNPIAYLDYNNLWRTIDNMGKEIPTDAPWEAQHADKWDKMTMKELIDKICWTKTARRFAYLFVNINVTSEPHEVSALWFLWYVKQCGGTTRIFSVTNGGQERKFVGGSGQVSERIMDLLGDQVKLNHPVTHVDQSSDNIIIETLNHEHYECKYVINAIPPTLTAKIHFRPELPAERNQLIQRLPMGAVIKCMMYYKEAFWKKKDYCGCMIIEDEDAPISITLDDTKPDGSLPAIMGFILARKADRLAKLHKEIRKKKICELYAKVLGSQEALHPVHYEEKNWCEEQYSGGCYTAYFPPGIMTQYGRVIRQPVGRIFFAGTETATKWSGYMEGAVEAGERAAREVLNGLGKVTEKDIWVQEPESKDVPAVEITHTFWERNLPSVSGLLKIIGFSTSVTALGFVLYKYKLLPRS
Source text: (§1) This example describes experiments for determining monoamine oxidase (MAO) inhibition activity for cannabidiol. MAOs are enzymes located on the outer membrane of mitochondria and are involved in the catabolism of monoamine neurotransmitters. There are two well-characterized isoenzymes: MAO-A, which predominantly catabolizes serotonin and norepinephrine, and MAO-B, which preferentially catabolizes benzylamine and phenylethylamine. Dopamine and tyramine are metabolized by both isoforms.
(§2) To detect the activity of MAO, a luminescent method (MAO-Glo Assay kit, from Promega, Cat #V1401) was used. In this method, a MAO substrate (a derivative of beetle luciferin provided in the kit) is mixed with the compound to be tested (in this case, myosmine and control compounds). Then, the MAO-A or MAO-B enzyme is added to the mixture and incubated with the reaction for 1 hour at room temperature. The MAO enzymes, if not inhibited by the test compound, will convert the substrate into methyl ester luciferin. Finally, a luciferin detection reagent (provided by the kit) is added (20 minutes at room temperature) to stop the MAO reaction and convert methyl ester luciferin into D-luciferin. […] The luminescent signal is measured and recorded using a luminometer.

[2] = biological target: T2, MAO-B enzyme (Homo sapiens, UniProt P27338); test: MAO-Glo luminescent assay, MAO-B inhibition; assay type: biochemical; conditions: FIG. 2
T2 sequence (P27338 1-520): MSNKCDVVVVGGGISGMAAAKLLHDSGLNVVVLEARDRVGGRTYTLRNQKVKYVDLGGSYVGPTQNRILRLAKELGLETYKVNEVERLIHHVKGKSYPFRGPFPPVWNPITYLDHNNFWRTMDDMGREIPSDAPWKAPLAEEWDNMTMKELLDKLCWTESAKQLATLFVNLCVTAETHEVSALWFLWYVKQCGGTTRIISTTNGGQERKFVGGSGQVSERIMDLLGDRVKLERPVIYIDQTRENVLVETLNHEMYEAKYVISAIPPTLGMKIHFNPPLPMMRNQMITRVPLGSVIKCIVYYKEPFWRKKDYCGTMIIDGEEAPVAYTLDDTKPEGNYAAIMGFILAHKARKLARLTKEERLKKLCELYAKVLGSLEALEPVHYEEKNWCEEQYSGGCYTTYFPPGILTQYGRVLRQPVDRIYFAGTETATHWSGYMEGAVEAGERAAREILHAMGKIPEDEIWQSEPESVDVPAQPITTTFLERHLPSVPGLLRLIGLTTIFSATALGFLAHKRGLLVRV
Source text: as §1, §2

[3] = test system: monoamine oxidase (MAO); conditions: Current Drug Safety, 2011, Vol. 6, No. 4; cited from earlier work
[4] = at a concentration of 7.5 mM (7,500 micromolar)

In the case of `C=C(C)[C@@H]1CCC(C)=C[C@H]1c1c(O)cc(CCCCC)cc1O` [CBD, 2-[(1R,6R)-3-methyl-6-(1-methylethenyl)-2-cyclohexen-1-yl]-5-pentyl-1,3-benzenediol], the “MAO-A inhibition, result in words” value ([1]; compared with nornicotine) was “potent inhibitor of MAO-A, in fact to an even greater extent than nornicotine”, the inhibition at 7500 µM [1, 4] was roughly 50% and the “MAO-B inhibition, result in words” value ([2]; compared with MAO-A activity) was “also inhibits MAO-B activity, although to a lesser extent than MAO-A activity”. For the same molecule, the inhibition at 7500 µM [2, 4] was roughly 30% and the “inhibiting monoamine oxidase (MAO) activity, prior report” value [3] was “ineffective”.
